Reference: PMC7385619, “A triple action CDK4/6-PI3K-BET inhibitor with augmented cancer cell cytotoxicity” (Cell Discovery, 2020)

Legend:
Experiment in all cases: KINOMEscan assay (Eurofins DiscoverX)
Assay type in all cases: binding
kinome (kinase panel) [1] = molecular target: T1, kinome (kinase panel) (Homo sapiens, UniProt O00329); details: PIK3CD; 1000 nM; read-out: Percent Control
T1 construct: purchased Eurofins DiscoverX

kinome (kinase panel) [2] = molecular target: T2, kinome (kinase panel) (Homo sapiens, UniProt O15197); details: EPHB6; 1000 nM; read-out: Percent Control
T2 construct: purchased Eurofins DiscoverX

kinome (kinase panel) [3] = molecular target: T3, kinome (kinase panel) (Homo sapiens, UniProt O43683); details: BUB1; 1000 nM; read-out: Percent Control
T3 construct: purchased Eurofins DiscoverX

kinome (kinase panel) [4] = molecular target: T4, kinome (kinase panel) (Homo sapiens, UniProt O75747); details: PIK3C2G; 1000 nM; read-out: Percent Control
T4 construct: purchased Eurofins DiscoverX

kinome (kinase panel) [5] = molecular target: T5, kinome (kinase panel) (Homo sapiens, UniProt O94768); details: DRAK2 (Entrez STK17B); 1000 nM; read-out: Percent Control
T5 construct: purchased Eurofins DiscoverX

kinome (kinase panel) [6] = molecular target: T6, kinome (kinase panel) (Homo sapiens, UniProt P07332); details: FES; 1000 nM; read-out: Percent Control
T6 construct: purchased Eurofins DiscoverX

kinome (kinase panel) [7] = molecular target: T7, kinome (kinase panel) (Homo sapiens, UniProt P07949, V804M); details: read-out: Percent Control
T7 construct: purchased Eurofins DiscoverX

kinome (kinase panel) [8] = molecular target: T8, kinome (kinase panel) (Homo sapiens, UniProt P10721, V559D/V654A); details: read-out: Percent Control
T8 construct: purchased Eurofins DiscoverX

kinome (kinase panel) [9] = molecular target: T9, kinome (kinase panel) (Homo sapiens, UniProt P19784); details: CSNK2A2; 1000 nM; read-out: Percent Control
T9 construct: purchased Eurofins DiscoverX

kinome (kinase panel) [10] = molecular target: T10, kinome (kinase panel) (Homo sapiens, UniProt P24723); details: PRKCH; 1000 nM; read-out: Percent Control
T10 construct: purchased Eurofins DiscoverX

kinome (kinase panel) [11] = molecular target: T11, kinome (kinase panel) (Homo sapiens, UniProt P29323); details: EPHB2; 1000 nM; read-out: Percent Control
T11 construct: purchased Eurofins DiscoverX

kinome (kinase panel) [12] = molecular target: T12, kinome (kinase panel) (Homo sapiens, UniProt P31749); details: AKT1; 1000 nM; read-out: Percent Control
T12 construct: purchased Eurofins DiscoverX

kinome (kinase panel) [13] = molecular target: T13, kinome (kinase panel) (Homo sapiens, UniProt P36888, D835H); details: […]; 1000 nM; read-out: Percent Control
T13 construct: purchased Eurofins DiscoverX

kinome (kinase panel) [14] = molecular target: T14, kinome (kinase panel) (Homo sapiens, UniProt P42336, E545A); details: read-out: Percent Control
T14 construct: purchased Eurofins DiscoverX

kinome (kinase panel) [15] = molecular target: T15, kinome (kinase panel) (Homo sapiens, UniProt P42338); details: PIK3CB; 1000 nM; read-out: Percent Control
T15 construct: purchased Eurofins DiscoverX

kinome (kinase panel) [16] = molecular target: T16, kinome (kinase panel) (Homo sapiens, UniProt P49760); details: CLK2; 1000 nM; read-out: Percent Control
T16 construct: purchased Eurofins DiscoverX

kinome (kinase panel) [17] = molecular target: T17, kinome (kinase panel) (Homo sapiens, UniProt P49841); details: GSK3B; 1000 nM; read-out: Percent Control
T17 construct: purchased Eurofins DiscoverX

kinome (kinase panel) [18] = molecular target: T18, kinome (kinase panel) (Homo sapiens, UniProt Q05397); details: FAK (Entrez PTK2); 1000 nM; read-out: Percent Control
T18 construct: purchased Eurofins DiscoverX

kinome (kinase panel) [19] = molecular target: T19, kinome (kinase panel) (Homo sapiens, UniProt Q05655); details: PRKCD; 1000 nM; read-out: Percent Control
T19 construct: purchased Eurofins DiscoverX

kinome (kinase panel) [20] = molecular target: T20, kinome (kinase panel) (Homo sapiens, UniProt Q13043); details: MST1 (Entrez STK4); 1000 nM; read-out: Percent Control
T20 construct: purchased Eurofins DiscoverX

kinome (kinase panel) [21] = molecular target: T21, kinome (kinase panel) (Homo sapiens, UniProt Q14680); details: MELK; 1000 nM; read-out: Percent Control
T21 construct: purchased Eurofins DiscoverX

kinome (kinase panel) [22] = molecular target: T22, kinome (kinase panel) (Homo sapiens, UniProt Q86UE8); details: TLK2; 1000 nM; read-out: Percent Control
T22 construct: purchased Eurofins DiscoverX

kinome (kinase panel) [23] = molecular target: T23, kinome (kinase panel) (Homo sapiens, UniProt Q8NEB9); details: VPS34 (PIK3C3); 1000 nM; read-out: Percent Control
T23 construct: purchased Eurofins DiscoverX

kinome (kinase panel) [24] = molecular target: T24, kinome (kinase panel) (Homo sapiens, UniProt Q8TD08); details: ERK8 (Entrez MAPK15); 1000 nM; read-out: Percent Control
T24 construct: purchased Eurofins DiscoverX

kinome (kinase panel) [25] = molecular target: T25, kinome (kinase panel) (Homo sapiens, UniProt Q96L34); details: MARK4; 1000 nM; read-out: Percent Control
T25 construct: purchased Eurofins DiscoverX

kinome (kinase panel) [26] = molecular target: T26, kinome (kinase panel) (Homo sapiens, UniProt Q99755); details: PIP5K1A; 1000 nM; read-out: Percent Control
T26 construct: purchased Eurofins DiscoverX

kinome (kinase panel) [27] = molecular target: T27, kinome (kinase panel) (Homo sapiens, UniProt Q9HCP0); details: CSNK1G1; 1000 nM; read-out: Percent Control
T27 construct: purchased Eurofins DiscoverX

kinome (kinase panel) [28] = molecular target: T28, kinome (kinase panel) (Homo sapiens, UniProt Q9NRH2); details: SNRK; 1000 nM; read-out: Percent Control
T28 construct: purchased Eurofins DiscoverX

kinome (kinase panel) [29] = molecular target: T29, kinome (kinase panel) (Homo sapiens, UniProt Q9NYY3); details: PLK2; 1000 nM; read-out: Percent Control
T29 construct: purchased Eurofins DiscoverX

kinome (kinase panel) [30] = molecular target: T30, kinome (kinase panel) (Homo sapiens, UniProt Q9UL54); details: TAOK2; 1000 nM; read-out: Percent Control
T30 construct: purchased Eurofins DiscoverX

kinome (kinase panel) [31] = molecular target: T31, kinome (kinase panel) (Homo sapiens, UniProt Q9Y2H1); details: NDR2 (Entrez STK38L); 1000 nM; read-out: Percent Control
T31 construct: purchased Eurofins DiscoverX

kinome (kinase panel) [32] = molecular target: T32, kinome (kinase panel) (Homo sapiens, UniProt Q9Y3S1); details: WNK2; 1000 nM; read-out: Percent Control
T32 construct: purchased Eurofins DiscoverX

kinome (kinase panel) [33] = molecular target: T33, kinome (kinase panel) (Homo sapiens, UniProt Q9Y6R4); details: MAP3K4; 1000 nM; read-out: Percent Control
T33 construct: purchased Eurofins DiscoverX

T29 sequence (Q9NYY3 whole entry): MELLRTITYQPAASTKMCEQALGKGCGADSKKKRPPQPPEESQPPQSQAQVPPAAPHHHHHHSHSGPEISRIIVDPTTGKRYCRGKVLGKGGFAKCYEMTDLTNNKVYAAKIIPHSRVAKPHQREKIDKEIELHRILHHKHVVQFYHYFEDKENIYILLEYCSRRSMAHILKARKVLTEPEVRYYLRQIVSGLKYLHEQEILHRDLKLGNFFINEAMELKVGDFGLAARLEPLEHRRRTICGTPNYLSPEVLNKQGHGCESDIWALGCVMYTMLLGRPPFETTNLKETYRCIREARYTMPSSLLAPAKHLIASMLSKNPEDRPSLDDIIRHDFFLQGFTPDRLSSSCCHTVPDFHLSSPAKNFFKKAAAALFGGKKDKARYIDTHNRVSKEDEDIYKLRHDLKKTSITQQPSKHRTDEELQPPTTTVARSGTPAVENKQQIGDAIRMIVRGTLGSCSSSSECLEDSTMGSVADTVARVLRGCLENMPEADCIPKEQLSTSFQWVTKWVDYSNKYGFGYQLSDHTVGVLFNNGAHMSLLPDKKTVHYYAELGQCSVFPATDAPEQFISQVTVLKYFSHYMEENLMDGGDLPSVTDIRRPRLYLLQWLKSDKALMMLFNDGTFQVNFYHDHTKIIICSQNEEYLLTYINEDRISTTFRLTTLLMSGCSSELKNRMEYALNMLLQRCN
T18 sequence (Q05397 whole entry): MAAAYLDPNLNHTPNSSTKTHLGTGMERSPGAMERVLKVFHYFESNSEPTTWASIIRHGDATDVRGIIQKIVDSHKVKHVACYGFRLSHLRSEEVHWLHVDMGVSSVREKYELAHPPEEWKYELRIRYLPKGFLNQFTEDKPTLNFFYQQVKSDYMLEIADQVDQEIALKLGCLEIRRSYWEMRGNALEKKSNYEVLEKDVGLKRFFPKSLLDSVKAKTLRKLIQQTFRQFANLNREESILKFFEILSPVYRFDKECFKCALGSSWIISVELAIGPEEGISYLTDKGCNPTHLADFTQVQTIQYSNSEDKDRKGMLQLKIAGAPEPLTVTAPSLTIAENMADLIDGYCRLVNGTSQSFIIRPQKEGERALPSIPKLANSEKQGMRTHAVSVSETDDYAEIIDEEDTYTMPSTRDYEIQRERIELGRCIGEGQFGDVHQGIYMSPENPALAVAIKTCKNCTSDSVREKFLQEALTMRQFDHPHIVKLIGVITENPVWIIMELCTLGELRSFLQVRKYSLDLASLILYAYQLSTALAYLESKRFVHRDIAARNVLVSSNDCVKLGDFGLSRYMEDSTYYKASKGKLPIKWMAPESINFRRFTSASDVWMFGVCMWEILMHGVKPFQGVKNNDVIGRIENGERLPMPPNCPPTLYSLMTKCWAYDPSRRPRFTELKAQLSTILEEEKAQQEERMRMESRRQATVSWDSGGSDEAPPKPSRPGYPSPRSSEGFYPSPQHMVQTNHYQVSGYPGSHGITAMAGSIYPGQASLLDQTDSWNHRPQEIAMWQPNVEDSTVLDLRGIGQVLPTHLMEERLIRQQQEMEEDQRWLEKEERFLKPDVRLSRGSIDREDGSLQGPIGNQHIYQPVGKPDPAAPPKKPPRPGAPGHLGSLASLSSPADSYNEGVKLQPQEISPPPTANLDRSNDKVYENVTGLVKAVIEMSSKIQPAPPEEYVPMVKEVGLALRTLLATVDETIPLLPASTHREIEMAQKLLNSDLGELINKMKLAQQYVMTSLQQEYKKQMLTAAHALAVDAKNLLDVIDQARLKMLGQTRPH
T14 sequence (P42336 whole entry E545A): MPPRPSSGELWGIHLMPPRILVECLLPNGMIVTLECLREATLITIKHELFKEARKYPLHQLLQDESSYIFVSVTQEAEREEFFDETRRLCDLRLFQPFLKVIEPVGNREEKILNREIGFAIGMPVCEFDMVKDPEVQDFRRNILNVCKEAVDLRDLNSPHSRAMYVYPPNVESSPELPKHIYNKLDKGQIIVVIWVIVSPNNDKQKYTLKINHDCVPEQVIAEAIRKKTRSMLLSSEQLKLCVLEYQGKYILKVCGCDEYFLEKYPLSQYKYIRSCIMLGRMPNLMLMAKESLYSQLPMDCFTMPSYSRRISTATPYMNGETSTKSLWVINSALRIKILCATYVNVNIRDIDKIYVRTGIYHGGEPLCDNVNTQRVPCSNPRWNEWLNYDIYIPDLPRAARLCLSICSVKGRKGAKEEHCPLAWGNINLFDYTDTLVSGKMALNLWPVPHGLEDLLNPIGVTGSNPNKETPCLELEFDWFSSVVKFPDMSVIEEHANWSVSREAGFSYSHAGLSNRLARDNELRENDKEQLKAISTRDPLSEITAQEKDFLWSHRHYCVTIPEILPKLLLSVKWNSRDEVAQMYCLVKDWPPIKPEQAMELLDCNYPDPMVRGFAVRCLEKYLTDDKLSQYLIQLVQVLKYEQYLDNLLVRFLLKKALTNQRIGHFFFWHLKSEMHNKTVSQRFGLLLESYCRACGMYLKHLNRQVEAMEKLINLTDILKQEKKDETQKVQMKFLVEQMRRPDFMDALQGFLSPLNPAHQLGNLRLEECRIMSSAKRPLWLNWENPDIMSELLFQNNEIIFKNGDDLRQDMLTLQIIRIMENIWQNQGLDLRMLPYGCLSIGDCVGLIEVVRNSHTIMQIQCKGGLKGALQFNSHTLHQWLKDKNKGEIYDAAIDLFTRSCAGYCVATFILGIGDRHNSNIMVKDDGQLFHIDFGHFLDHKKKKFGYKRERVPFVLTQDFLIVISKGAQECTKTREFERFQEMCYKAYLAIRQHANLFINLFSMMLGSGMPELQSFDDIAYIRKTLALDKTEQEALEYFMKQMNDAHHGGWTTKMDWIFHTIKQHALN
T7 sequence (P07949 29-1114 V804M): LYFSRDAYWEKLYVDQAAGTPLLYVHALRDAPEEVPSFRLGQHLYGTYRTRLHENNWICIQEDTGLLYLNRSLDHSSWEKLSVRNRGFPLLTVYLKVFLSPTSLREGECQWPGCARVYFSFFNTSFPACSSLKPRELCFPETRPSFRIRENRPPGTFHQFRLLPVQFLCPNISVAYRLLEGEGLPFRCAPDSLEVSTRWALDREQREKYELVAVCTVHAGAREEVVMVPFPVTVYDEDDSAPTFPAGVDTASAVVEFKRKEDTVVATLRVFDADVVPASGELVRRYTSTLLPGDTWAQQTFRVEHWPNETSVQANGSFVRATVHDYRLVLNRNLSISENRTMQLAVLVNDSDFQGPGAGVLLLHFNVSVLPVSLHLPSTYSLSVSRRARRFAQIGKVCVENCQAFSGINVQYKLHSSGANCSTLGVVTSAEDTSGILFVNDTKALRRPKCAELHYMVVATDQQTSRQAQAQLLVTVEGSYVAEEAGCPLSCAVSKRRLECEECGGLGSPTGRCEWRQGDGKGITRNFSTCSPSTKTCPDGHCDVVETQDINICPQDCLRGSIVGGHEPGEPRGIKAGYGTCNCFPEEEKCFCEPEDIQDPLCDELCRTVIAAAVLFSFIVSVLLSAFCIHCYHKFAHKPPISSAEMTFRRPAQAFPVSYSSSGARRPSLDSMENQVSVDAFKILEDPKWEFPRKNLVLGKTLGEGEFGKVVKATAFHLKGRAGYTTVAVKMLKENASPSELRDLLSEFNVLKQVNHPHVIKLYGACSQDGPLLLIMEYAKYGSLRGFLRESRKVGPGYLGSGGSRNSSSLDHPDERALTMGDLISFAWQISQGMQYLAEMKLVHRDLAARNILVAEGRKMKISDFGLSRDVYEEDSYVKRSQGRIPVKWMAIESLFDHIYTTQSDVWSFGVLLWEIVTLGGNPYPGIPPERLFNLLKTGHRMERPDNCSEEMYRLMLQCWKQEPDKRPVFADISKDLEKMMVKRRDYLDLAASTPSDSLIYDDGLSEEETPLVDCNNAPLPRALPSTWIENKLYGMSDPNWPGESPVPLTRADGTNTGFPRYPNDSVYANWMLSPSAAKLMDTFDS
T25 sequence (Q96L34 whole entry): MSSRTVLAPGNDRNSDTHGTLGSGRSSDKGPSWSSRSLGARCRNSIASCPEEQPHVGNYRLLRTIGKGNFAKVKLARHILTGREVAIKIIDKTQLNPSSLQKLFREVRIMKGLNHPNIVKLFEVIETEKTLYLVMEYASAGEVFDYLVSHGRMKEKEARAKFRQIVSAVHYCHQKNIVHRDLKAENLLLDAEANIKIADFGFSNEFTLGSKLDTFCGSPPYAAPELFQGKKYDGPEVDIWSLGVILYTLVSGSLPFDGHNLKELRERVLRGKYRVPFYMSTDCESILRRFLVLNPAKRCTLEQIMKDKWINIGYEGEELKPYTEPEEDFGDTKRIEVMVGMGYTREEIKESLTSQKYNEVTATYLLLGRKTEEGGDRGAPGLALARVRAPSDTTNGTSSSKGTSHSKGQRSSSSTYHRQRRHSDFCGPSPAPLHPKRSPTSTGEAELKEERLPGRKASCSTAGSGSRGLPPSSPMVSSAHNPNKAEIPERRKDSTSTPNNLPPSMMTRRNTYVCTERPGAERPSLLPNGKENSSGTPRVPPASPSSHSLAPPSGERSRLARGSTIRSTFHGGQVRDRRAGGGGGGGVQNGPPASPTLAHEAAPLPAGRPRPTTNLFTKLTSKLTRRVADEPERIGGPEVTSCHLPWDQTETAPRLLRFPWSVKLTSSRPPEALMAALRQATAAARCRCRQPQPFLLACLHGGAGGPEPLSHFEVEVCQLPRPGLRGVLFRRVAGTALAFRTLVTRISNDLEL
T27 sequence (Q9HCP0 whole entry): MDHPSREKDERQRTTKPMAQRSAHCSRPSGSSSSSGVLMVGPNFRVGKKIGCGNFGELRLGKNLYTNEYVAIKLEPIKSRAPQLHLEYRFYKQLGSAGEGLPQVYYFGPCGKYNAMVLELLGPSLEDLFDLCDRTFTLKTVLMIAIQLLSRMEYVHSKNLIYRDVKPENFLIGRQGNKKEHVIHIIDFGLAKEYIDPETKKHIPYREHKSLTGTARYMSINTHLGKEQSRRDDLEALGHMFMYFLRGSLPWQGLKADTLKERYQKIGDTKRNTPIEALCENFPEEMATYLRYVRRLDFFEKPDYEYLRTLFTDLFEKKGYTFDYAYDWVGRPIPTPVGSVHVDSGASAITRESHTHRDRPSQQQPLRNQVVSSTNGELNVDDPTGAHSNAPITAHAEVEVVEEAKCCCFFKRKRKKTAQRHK

## CN(C)C(=O)c1cc2cnc(Nc3ccc(-c4csc5c(=O)cc(N6CCOCC6)oc45)cc3)nc2n1C1CCCC1 [SRX3177]
Kinome (kinase panel) [1]
  remaining binding at 1 µM: 63%
Kinome (kinase panel) [2]
  remaining binding at 1 µM: 4.9%
Kinome (kinase panel) [3]
  remaining binding at 1 µM: 50%
Kinome (kinase panel) [4]
  remaining binding at 1 µM: 100%
Kinome (kinase panel) [5]
  remaining binding at 1 µM: 100%
Kinome (kinase panel) [6]
  remaining binding at 1 µM: 88%
Kinome (kinase panel) [7]
  remaining binding at 1 µM: 100%
Kinome (kinase panel) [8]
  remaining binding at 1 µM: 100%
Kinome (kinase panel) [9]
  remaining binding at 1 µM: 5.7%
Kinome (kinase panel) [10]
  remaining binding at 1 µM: 97%
Kinome (kinase panel) [11]
  remaining binding at 1 µM: 97%
Kinome (kinase panel) [12]
  remaining binding at 1 µM: 100%
Kinome (kinase panel) [13]
  remaining binding at 1 µM: 8.9%
Kinome (kinase panel) [14]
  remaining binding at 1 µM: 82%
Kinome (kinase panel) [15]
  remaining binding at 1 µM: 22%
Kinome (kinase panel) [16]
  remaining binding at 1 µM: 92%
Kinome (kinase panel) [17]
  remaining binding at 1 µM: 75%
Kinome (kinase panel) [18]
  remaining binding at 1 µM: 90%
Kinome (kinase panel) [19]
  remaining binding at 1 µM: 86%
Kinome (kinase panel) [20]
  remaining binding at 1 µM: 100%
Kinome (kinase panel) [21]
  remaining binding at 1 µM: 100%
Kinome (kinase panel) [22]
  remaining binding at 1 µM: 100%
Kinome (kinase panel) [23]
  remaining binding at 1 µM: 46%
Kinome (kinase panel) [24]
  remaining binding at 1 µM: 81%
Kinome (kinase panel) [25]
  remaining binding at 1 µM: 100%
Kinome (kinase panel) [26]
  remaining binding at 1 µM: 21%
Kinome (kinase panel) [27]
  remaining binding at 1 µM: 82%
Kinome (kinase panel) [28]
  remaining binding at 1 µM: 82%
Kinome (kinase panel) [29]
  remaining binding at 1 µM: 86%
Kinome (kinase panel) [30]
  remaining binding at 1 µM: 20%
Kinome (kinase panel) [31]
  remaining binding at 1 µM: 90%
Kinome (kinase panel) [32]
  remaining binding at 1 µM: 77%
Kinome (kinase panel) [33]
  remaining binding at 1 µM: 90%
